The supplement of paper PMC5908809

Key:
[1] = test system: normal NK cells expanded with K562-aAPC; assay: percent inhibition of viability; higher = more inhibition; conditions: 72 h, IL-2 2.5 ng/mL
Experimental: (§1)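 Drug sensitivity and resistance testing on K562-aAPC-expanded normal NK cells: 5 concentrations (10-fold steps over a 10,000-fold range), 72 h at 37 °C, viability by CellTiter-Glo normalised to DMSO and benzethonium chloride controls; DSS from the fitted curve.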

[2] = test system: DERL-7 (IL-2 2.5 ng/mL); assay: as above; conditions: 72 h
[3] = test system: IMC-1 (IL-2 20 ng/mL); assay: as above; conditions: 72 h
[4] = test system: KAI3 (IL-2 2.5 ng/mL); assay: as above; conditions: 72 h
[5] = test system: KHYG-1 (IL-2 2.5 ng/mL); assay: as above; conditions: 72 h
[6] = test system: NK-92 (IL-2 2.5 ng/mL); assay: as above; conditions: 72 h
[7] = test system: NK-YS (IL-2 2.5 ng/mL); assay: as above; conditions: 72 h
[8] = test system: NKL (IL-2 2.5 ng/mL); assay: as above; conditions: 72 h
[9] = test system: SNK-6 (IL-2 2.5 ng/mL); assay: as above; conditions: 72 h
[10] = test system: YT (IL-2 2.5 ng/mL); assay: as above; conditions: 72 h
[11] = test system: normal primary NK cells, pool 1 (3 donors) (IL-2 2.5 ng/mL); assay: as above; conditions: 72 h
[12] = test system: normal primary NK cells, pool 1 (3 donors), resting (IL-2 0 ng/mL); assay: as above; conditions: 72 h
[13] = test system: normal primary NK cells, pool 2 (3 donors) (IL-2 2.5 ng/mL); assay: as above; conditions: 72 h
[14] = test system: normal primary NK cells, pool 3 (3 donors) (IL-2 2.5 ng/mL); assay: as above; conditions: 72 h
[15] = test system: normal NK cells expanded with K562-aAPC; assay: drug sensitivity score (DSS) (DSS units); higher = more sensitive; extreme values may be limits of the assay; conditions: 72 h; IL-2 2.5 ng/mL
Experimental: as §1

[16] = test system: DERL-7 (IL-2 2.5 ng/mL); assay: as above; conditions: 72 h
[17] = test system: IMC-1 (IL-2 20 ng/mL); assay: as above; conditions: 72 h
[18] = test system: KAI3 (IL-2 2.5 ng/mL); assay: as above; conditions: 72 h
[19] = test system: KHYG-1 (IL-2 2.5 ng/mL); assay: as above; conditions: 72 h
[20] = test system: NK-92 (IL-2 2.5 ng/mL); assay: as above; conditions: 72 h
[21] = test system: NK-YS (IL-2 2.5 ng/mL); assay: as above; conditions: 72 h
[22] = test system: NKL (IL-2 2.5 ng/mL); assay: as above; conditions: 72 h
[23] = test system: SNK-6 (IL-2 2.5 ng/mL); assay: as above; conditions: 72 h
[24] = test system: YT (IL-2 2.5 ng/mL); assay: as above; conditions: 72 h
[25] = test system: normal primary NK cells, pool 1 (3 donors) (IL-2 2.5 ng/mL); assay: as above; conditions: 72 h
[26] = test system: normal primary NK cells, pool 1 (3 donors), resting (IL-2 0 ng/mL); assay: as above; conditions: 72 h
[27] = test system: normal primary NK cells, pool 2 (3 donors) (IL-2 2.5 ng/mL); assay: as above; conditions: 72 h
[28] = test system: normal primary NK cells, pool 3 (3 donors) (IL-2 2.5 ng/mL); assay: as above; conditions: 72 h

C=CC(=O)N1CCC[C@@H](n2nc(-c3ccc(Oc4ccccc4)cc3)c3c(N)ncnc32)C1 [Ibrutinib] (max concentration tested 1000 nM)
percent inhibition of viability [%]
Conditions	0.1 nM	1 nM	10 nM	100 nM	1000 nM
[1]	-2.6	-5.62	-10	-0.99	-0.93
[2]	2.78	2.44	6.17	7.83	34.1
[3]	-4.48	-0.1	-1.11	-2.87	-8.75
[4]	1.69	2.89	0.25	8.29	20.5
[5]	-6.77	-1.35	-1.82	0.67	8.69
[6]	-15.8	-16.1	-8.18	0.25	15.7
[7]	-1.09	-1.95	-0.26	0.88	15.6
[8]	-5.52	0.29	10.1	24.2	30
[9]	-11.4	9.91	-7.4	1.24	8.78
[10]	-2.79	-1.68	-0.35	13.8	31.3
[11]	-0.62	9.62	12.7	12.1	21
[12]	-3.67	8.12	16.8	10	22.4
[13]	-6.12	0.44	7.05	-9.76	10.5
[14]	-5.07	4.6	-2.73	-10.7	-14

Conditions	drug sensitivity score
[15]	0
[16]	2.68
[17]	0
[18]	1.54
[19]	0
[20]	0.3
[21]	0.35
[22]	4.8
[23]	0
[24]	3.17
[25]	2.44
[26]	2.74
[27]	0
[28]	0

Nc1ncn([C@H]2C[C@H](O)[C@@H](CO)O2)c(=O)n1 [Decitabine] (max concentration tested 10000 nM)
percent inhibition of viability [%]
Conditions	1 nM	10 nM	100 nM	1000 nM	10000 nM
[1]	3.63	6.61	11.9	21.8	56.1
[2]	0.66	-1.23	21.1	60.8	92.3
[3]	6.19	9.72	18.9	18.9	49.6
[4]	10.1	26.4	51.8	58.8	73
[5]	4.42	1.27	13.6	51.4	89.8
[6]	14.1	7.13	28.5	42.4	81.5
[7]	2.7	4.69	16.5	38	64.8
[8]	0.73	9.17	7.62	27.4	15
[9]	3.81	14.8	64.3	70.1	78.8
[10]	9.12	6.63	10.1	24.2	47.4
[11]	8.63	2.5	-2.22	-0.78	30.4
[12]	3.59	-12.2	2.07	-6.83	43.9
[13]	-3.35	-1.69	-11.7	3	32.2
[14]	-2.52	-0.43	2.61	5.08	47.6

Conditions	drug sensitivity score
[15]	5.69
[16]	14.1
[17]	6.54
[18]	21
[19]	11.7
[20]	12.6
[21]	9.23
[22]	3.12
[23]	23.5
[24]	5.68
[25]	1.27
[26]	1.82
[27]	1.92
[28]	3.32
